pIC50: −log10 of the molar value.
How the values were obtained:
[1] = biological target: Hepatocyte growth factor receptor (Homo sapiens, UniProt P08581); experiment: Inhibition of cMet (unknown origin) using poly(Glu, Tyr)4:1 substrate and ATP incubated fro 60 mins by ELISA
PC-3 = experiment: Cytotoxicity in human PC3 cells incubated for 72 hrs by sulforhodamine B assay; conditions: PC-3, 72 h
PANC-1 = experiment: Cytotoxicity in human PANC1 cells incubated for 72 hrs by sulforhodamine B assay; conditions: PANC-1, 72 h
HepG2 = experiment: Cytotoxicity in human HepG2 cells incubated for 72 hrs by sulforhodamine B assay; conditions: HepG2, 72 h
CAKI-1 = experiment: Cytotoxicity in human Caki1 cells incubated for 72 hrs by sulforhodamine B assay; conditions: CAKI-1, 72 h

Hepatocyte growth factor receptor, sequence (P08581 whole entry): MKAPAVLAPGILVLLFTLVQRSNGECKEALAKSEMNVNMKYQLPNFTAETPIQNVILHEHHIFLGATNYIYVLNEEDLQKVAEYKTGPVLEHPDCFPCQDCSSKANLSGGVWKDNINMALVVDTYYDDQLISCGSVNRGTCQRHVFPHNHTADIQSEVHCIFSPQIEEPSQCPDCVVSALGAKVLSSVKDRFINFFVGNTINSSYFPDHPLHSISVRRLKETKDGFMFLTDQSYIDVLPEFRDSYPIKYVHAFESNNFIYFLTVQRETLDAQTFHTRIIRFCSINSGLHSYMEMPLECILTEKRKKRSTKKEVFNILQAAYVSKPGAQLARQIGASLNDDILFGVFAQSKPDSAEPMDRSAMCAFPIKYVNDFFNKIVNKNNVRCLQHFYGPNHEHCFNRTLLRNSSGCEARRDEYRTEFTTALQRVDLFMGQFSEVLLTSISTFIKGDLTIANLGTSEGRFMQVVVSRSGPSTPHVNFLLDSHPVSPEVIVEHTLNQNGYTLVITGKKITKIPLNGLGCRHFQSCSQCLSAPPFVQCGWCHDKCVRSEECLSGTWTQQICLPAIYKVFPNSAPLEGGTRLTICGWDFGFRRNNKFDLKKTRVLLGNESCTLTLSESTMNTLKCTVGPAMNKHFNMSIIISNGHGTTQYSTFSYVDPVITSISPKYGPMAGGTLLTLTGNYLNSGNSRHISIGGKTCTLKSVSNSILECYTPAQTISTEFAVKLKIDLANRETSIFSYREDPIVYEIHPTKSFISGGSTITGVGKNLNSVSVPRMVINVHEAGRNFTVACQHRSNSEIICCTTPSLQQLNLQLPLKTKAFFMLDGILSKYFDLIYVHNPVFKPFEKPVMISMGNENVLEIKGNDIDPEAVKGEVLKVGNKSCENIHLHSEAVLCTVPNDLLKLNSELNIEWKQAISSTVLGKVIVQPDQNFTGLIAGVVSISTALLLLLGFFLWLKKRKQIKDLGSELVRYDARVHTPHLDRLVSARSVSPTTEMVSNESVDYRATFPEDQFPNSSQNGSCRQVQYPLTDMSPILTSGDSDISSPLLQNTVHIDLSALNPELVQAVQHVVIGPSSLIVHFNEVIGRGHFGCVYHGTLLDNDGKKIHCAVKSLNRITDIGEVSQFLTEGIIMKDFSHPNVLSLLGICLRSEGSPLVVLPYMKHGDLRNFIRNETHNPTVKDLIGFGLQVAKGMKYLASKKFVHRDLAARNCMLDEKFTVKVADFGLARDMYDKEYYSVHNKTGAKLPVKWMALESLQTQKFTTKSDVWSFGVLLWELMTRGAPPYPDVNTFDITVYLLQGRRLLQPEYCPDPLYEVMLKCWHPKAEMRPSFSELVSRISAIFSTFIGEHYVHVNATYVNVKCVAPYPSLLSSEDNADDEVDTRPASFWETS

Structure (SMILES)	pIC50 [1]	other results
COc1cc2c(cc1OC)Nc1ncnc(Oc3ccc(NC(=O)C4(C(=O)Nc5ccc(F)cc5)CC4)cc3F)c1N=C2	–	pIC50 (PC-3): 5.79; pIC50 (PANC-1): 5.78; pIC50 (HepG2): 5.87; pIC50 (CAKI-1): 6.06
COc1cc2c(cc1OC)C(=O)Nc1c(Oc3ccc(NC(=O)C4(C(=O)Nc5ccc(F)cc5)CC4)cc3F)ccnc1N2	< 6.00	–
COc1cc2c(cc1OC)Nc1nccc(Oc3ccc(NC(=O)C4(C(=O)Nc5ccc(F)cc5)CC4)cc3F)c1N=C2	< 6.00	–
COc1cc2c(cc1OC)Nc1ncnc(Oc3ccc(NC(=O)C4(C(=O)Nc5ccc(F)cc5)CC4)cc3)c1NC2	–	pIC50 (PC-3): 5.15; pIC50 (PANC-1): 5.27; pIC50 (HepG2): 5.31; pIC50 (CAKI-1): 5.83
COc1ccc2c(c1)CNc1c(nc(C)nc1Oc1ccc(NC(=O)C3(C(=O)Nc4ccc(F)cc4)CC3)cc1)N2	< 6.00	–

Now from value to compound, other results behind:

pIC50 [1]	Structure (SMILES)	other results
< 6.00	COc1cc2c(cc1OC)Nc1nccc(Oc3ccc(NC(=O)C4(C(=O)Nc5ccc(F)cc5)CC4)cc3)c1N=C2	–
< 6.00	COc1cc2c(cc1OC)Nc1ncnc(Oc3ccc(NC(=O)C4(C(=O)Nc5ccc(F)cc5)CC4)cc3F)c1N(C)C2	–
< 6.00	O=C(Nc1ccc(F)cc1)C1(C(=O)Nc2ccc(Oc3ncnc4c3NCc3ccccc3O4)cc2)CC1	–
< 6.00	COc1cc2c(cc1OC)Nc1nccc(Oc3ccc(NC(=O)C4(C(=O)Nc5ccc(F)cc5)CC4)cc3)c1NC2	–
< 6.00	COc1cc2c(cc1OC)C(=O)Nc1c(ncnc1Oc1ccc(NC(=O)C3(C(=O)Nc4ccc(F)cc4)CC3)cc1F)N2	–
